Test results from patent publication US20250381165A1, “Method of Use for Benzofuran Compounds” (Tampa Bay Research Institute, Inc., priority 2024, published 2025).

System: SIINFEKL specific CD8+ T cells
Experiment: Immunization with BzFβ/SIINFEKL treated DC2.4 cells
Assay type: in vivo, C57BL/6crl mice
Settings: mice immunized sc with 1.2×10^6 DC2.4 treated with 50 μg/mL BzFβ then 1 μg/mL SIINFEKL; prime and boost
Experimental: DC2.4 cells that had been matured by an overnight treatment with 20 ng/mL murine IFNγ (He, et al., Interferon gamma stimulates cellular maturation of dendritic cell line DC2.4 leading to induction of efficient cytotoxic T cell responses and antitumor immunity. Cell Mol Immunol. 2007; 4(2):105-11) were treated with 30 μg/mL mitomycin C to block replication and were then pulsed for 1 h with 1 μg/mL SIINFEKL peptide (Group 2), or with 50 μg/mL BzFβ for 1 h and then with 1 μg/mL SIINFEKL peptide for 1 h (Group 3).
Female C57BL/6crl mice were separated into 3 groups with 6 mice per group. The mice in Group 1 served as the naïve, no treatment group, Group 2 treated with by subcutaneous injection of 1.2×10^6 DC2.4 cells primed with IFNγ, mitomycin C and SIINFEKL, and Group 3 treated by subcutaneous injection of 1.2×10^6 DC2.4 cells primed with BzFβ and SIINFEKL as outlined above. […] Fourteen days later, the number of MHC class I/SIINFEKL tetramer positive CD8+ cells in the peripheral blood and spleen were determined.
On day 21 (14 days after the last immunization) blood was collected from the retro-orbital plexus. […] The number of CD19 negative^−/CD8 positive/SIINFEKL tetramer positive cells was determined by flow cytometric analysis following collection of positive events detected in the lymphocyte gate. […]

O=C(O)/C=C/c1ccc2occc2c1 [BzFβ, (2E)-3-(1-benzofuran-5-yl)prop-2-enoic acid]
SIINFEKL-specific CD8+ T cell response: enhanced SIINFEKL-specific CD8+ T cell response
